Test: solubility of AgCl calculated from solubility product
Format: physicochemical
Conditions: in water
Excerpt: As described above, it can be seen that when the silver ions are eluted through the electrolysis, the sterilization can be more efficiently conducted than when the silver ions are eluted through other methods.

dissolvable AgCl, as a concentration of the silver ions: approximately 1.5 mg/L
SMILES: [Cl][Ag] [AgCl, silver chloride]

Reference: US20100243432A1, “HUMIDIFIER” (priority 2007, published 2010)
